Here are results for 13 compounds from article PMC10520017, “Discovery of Nedd4 auto-ubiquitination inhibitors” (Scientific Reports, 2023).

The target in experiment [1] is T1, Nedd4 (Homo sapiens, UniProt P46934).
T1 sequence (P46934 1-900 isoform P46934-4): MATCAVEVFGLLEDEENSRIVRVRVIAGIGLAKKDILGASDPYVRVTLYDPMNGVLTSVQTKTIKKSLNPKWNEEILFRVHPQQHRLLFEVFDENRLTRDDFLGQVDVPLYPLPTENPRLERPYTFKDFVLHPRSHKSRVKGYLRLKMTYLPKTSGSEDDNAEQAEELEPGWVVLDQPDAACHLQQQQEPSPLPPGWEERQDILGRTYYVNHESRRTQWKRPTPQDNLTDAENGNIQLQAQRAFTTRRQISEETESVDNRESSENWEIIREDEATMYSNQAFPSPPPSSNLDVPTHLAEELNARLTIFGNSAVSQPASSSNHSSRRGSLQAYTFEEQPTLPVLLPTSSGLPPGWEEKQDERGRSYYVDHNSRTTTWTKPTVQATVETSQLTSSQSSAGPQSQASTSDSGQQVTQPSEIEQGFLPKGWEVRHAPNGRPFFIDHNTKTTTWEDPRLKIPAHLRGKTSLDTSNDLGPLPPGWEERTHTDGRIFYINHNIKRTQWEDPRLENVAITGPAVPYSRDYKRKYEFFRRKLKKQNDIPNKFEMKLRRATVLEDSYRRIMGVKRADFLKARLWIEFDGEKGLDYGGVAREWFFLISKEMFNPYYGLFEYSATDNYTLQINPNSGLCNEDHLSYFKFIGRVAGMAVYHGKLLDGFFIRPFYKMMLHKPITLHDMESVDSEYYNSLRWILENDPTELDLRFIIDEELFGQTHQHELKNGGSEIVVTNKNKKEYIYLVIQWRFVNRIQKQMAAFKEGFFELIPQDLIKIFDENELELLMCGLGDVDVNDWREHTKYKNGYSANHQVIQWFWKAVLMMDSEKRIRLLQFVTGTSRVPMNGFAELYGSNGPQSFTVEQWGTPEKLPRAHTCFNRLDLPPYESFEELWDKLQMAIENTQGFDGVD
The experiment in a line: biochemical.
Description: (§1) All time-resolved fluorescence resonance energy transfer (TR-FRET) auto-ubiquitination assays were performed in a final volume of 10 µL in PerkinElmer 384-well flat bottom white OptiPlate™ polystyrene microplates (PerkinElmer Cat. No. 6007290). […] A low concentration of NP-40 detergent (0.00063% v/v) was chosen for the Nedd4 auto-ubiquitination assay since this concentration yielded optimal terbium emission at 485 nm after 340 nm excitation (Supplementary Fig. 2). […] Reaction mixes containing all assay components except ATP-MgCl2 were preincubated with either library compounds dissolved in 1% DMSO or DMSO alone at RT for up to 2 h. To initiate the auto-ubiquitination reaction, 2 mM ATP-MgCl2 was added and incubated at 37 °C for 60–90 min. TR-FRET signal was measured in a Synergy 4 microplate reader (BioTek) using a 340/30 nm excitation filter and measuring the emission ratio using 485/20 nm and 528/20 nm emission filters. Fluorescence measurement was performed over a 400 µs window following a 100 µs delay post-excitation (Fig. 1).
(§2) All experiments were performed in triplicate (n = 3), and plotted values represent the average of three replicates with the standard deviation. TR-FRET signal refers to background values subtracted using control wells containing Tb-SA and Ub-FITC. Data were plotted using GraphPad 9.1.2 (GraphPad, La Jolla, CA) and fitted to a four-parameter sigmoidal dose–response curve. Where applicable, the dose–response was normalized and expressed as a percentage of auto-ubiquitination activity relative to the DMSO control.

The target of experiment [2] is T1, Nedd4.
Description: as §1, §2
The test system of experiment [3] is Nedd4. Also noted: method as in PMID 27979631. The conditions noted are these: cited from earlier work.
The next experiment addresses WWP1 (Homo sapiens, UniProt Q9H0M0). The conditions noted are these: 200 µM.
The next experiment addresses T2, Nedd4 C867A (Homo sapiens, UniProt P46934, C1286A).
T2 construct: full length C182A, C627A, C867A, and C627A + C867A mutants; made in house; host or cells: E. coli BL21 (D3)-BirA
T2 sequence (P46934 1-900 isoform P46934-4 C867A): T1 sequence (P46934 1-900 isoform P46934-4) with C867A
Description: TR-FRET auto-ubiquitination assay of Nedd4 mutant C867A. Type of experiment: biochemical. The conditions noted are these: 200 µM, 2 h at RT.

In experiment [4] the target is T1, Nedd4. The experiment in a line: Western blotting for ubiquitination and biotinylated Nedd4. Type of experiment: biochemical. The conditions noted are these: 50 and 100 µM, 2 h at RT. As for the experimental part:
The auto-ubiquitination reactions were initiated with the addition of 2 mM ATP-MgCl2. Another control reaction was performed without the addition of ATP-MgCl2 for comparison (negative control).

In the next experiment the target is T3, Nedd4 C627A + C867A (Homo sapiens, UniProt P46934, C1046A/C1286A).
T3 construct: full length C182A, C627A, C867A, and C627A + C867A mutants; made in house; host or cells: E. coli BL21 (D3)-BirA
T3 sequence (P46934 1-900 isoform P46934-4 C627A/C867A): T1 sequence (P46934 1-900 isoform P46934-4) with C627A, C867A
Description: TR-FRET auto-ubiquitination assay of Nedd4 double mutant C627A + C867A. Type of experiment: biochemical. The conditions noted are these: 200 µM, 2 h at RT. On the technique in general: In TR-FRET formats the signal depends on donor and acceptor labels being close together.

For the next experiment, the target named is T4, Nedd4 C627A (Homo sapiens, UniProt P46934, C1046A).
T4 construct: full length C182A, C627A, C867A, and C627A + C867A mutants; made in house; host or cells: E. coli BL21 (D3)-BirA
T4 sequence (P46934 1-900 isoform P46934-4 C627A): T1 sequence (P46934 1-900 isoform P46934-4) with C627A
The experiment in a line: TR-FRET auto-ubiquitination assay of Nedd4 mutant C627A. Type of experiment: biochemical. The conditions noted are these: 2 h at RT, read-out: retention of uninhibited C627A activity.

Experiment [5] has as its target T1, Nedd4. The experiment in a line: LC–MS/MS covalent adduction and site identification. Also noted: 30 µg of N-terminal His-tagged and C-terminal biotinylated Nedd4 (residue 1–900); made in house; host or cells: E. coli BL21 (D3)-BirA. Type of experiment: binding. The protocol:
Samples were run on SDS-PAGE and stained with Coomassie Brilliant Blue R-250 (Thermo Fisher Scientific cat no. 20278). Gels were destained in water until the desired contrast was reached. The Nedd4 bands were cut and stored in 1% acetic acid at 4 °C until use. Samples were submitted to the SPARC Molecular Analysis Centre at the Hospital for Sick Children (Toronto, ON, CA) for LC–MS/MS analysis. Each gel band was cut into 3 pieces and digested with 0.8 µg pepsin, 0.6 µg trypsin and 0.6 µg chymotrypsin separately. The peptides obtained through the proteolytic digest were combined then lyophilized and resuspended in 0.1% formic acid. These samples were then subjected to MS/MS spectroscopy by an EASY-nLC 1200 nano-LC system + Thermo Scientific Orbitrap Fusion Lumos Tribrid mass spectrometer. MS data was analyzed using Scaffold PTM 4.0.1.

Another experiment has as its target WWP2 (Homo sapiens, UniProt O00308). The conditions noted are these: 200 µM.
Setting [6] is: 200 µM compound, 3 h incubation.

Molecules are shown by their SMILES. Changes are numbered by the printed parent chain. Where “and” joins values, the source holds several entries; their conditions need not be identical. Equal entries are not always repeated. Where two headings read alike, the source gives them in different places. Where only a bound is given, the exact number is not on record here.

WWP1, sequence (Q9H0M0 349-922): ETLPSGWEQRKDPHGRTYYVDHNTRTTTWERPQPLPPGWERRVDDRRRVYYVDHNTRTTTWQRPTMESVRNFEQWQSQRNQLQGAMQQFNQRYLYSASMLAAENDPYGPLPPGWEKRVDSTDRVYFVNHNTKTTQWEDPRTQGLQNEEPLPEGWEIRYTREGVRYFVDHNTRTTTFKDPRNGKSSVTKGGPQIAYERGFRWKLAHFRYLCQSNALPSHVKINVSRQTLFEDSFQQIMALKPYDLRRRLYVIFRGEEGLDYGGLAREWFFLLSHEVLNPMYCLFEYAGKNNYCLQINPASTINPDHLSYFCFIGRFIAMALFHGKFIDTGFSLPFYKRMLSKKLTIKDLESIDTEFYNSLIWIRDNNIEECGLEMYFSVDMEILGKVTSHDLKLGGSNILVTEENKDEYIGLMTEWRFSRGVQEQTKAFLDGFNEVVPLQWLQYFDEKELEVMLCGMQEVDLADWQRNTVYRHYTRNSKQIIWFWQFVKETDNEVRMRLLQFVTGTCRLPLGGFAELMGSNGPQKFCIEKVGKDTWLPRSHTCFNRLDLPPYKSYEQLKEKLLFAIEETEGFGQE
WWP2, sequence (O00308 whole entry): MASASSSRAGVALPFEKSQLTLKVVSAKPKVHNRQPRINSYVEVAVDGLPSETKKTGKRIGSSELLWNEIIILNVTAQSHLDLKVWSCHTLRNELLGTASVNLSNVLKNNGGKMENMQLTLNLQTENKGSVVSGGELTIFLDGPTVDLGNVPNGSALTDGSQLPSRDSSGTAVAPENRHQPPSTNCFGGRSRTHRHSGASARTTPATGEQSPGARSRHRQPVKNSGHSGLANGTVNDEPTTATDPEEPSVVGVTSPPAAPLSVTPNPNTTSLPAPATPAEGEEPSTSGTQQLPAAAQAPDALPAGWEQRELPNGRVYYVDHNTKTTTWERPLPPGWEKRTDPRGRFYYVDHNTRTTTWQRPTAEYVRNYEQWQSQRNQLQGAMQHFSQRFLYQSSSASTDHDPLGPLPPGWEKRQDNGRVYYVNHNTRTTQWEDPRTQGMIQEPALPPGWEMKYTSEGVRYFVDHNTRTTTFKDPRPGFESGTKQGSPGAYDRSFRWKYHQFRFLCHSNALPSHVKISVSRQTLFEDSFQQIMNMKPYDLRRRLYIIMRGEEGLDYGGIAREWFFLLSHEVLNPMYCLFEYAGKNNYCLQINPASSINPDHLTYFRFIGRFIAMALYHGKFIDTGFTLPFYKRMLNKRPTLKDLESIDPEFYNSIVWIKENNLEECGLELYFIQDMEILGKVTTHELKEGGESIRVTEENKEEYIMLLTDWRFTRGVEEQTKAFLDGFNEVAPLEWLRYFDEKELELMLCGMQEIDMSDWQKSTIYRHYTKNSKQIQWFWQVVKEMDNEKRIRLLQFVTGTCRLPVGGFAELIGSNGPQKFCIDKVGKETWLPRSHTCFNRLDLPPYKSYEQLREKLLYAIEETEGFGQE
Description for Nedd4 C627A + C867A: (§3) All time-resolved fluorescence resonance energy transfer (TR-FRET) auto-ubiquitination assays were performed in a final volume of 10 µL in PerkinElmer 384-well flat bottom white OptiPlate™ polystyrene microplates (PerkinElmer Cat. No. 6007290). […] A low concentration of NP-40 detergent (0.00063% v/v) was chosen for the Nedd4 auto-ubiquitination assay since this concentration yielded optimal terbium emission at 485 nm after 340 nm excitation (Supplementary Fig. 2). Concentrations of Ub activating (E1) and conjugating (E2) enzymes and fluorophores were selected to provide sufficient TR-FRET signal intensity for compound screening without excessive reagent consumption (Supplementary Fig. 3). Reaction mixes containing all assay components except ATP-MgCl2 were preincubated with either library compounds dissolved in 1% DMSO or DMSO alone at RT for up to 2 h. […] TR-FRET signal was measured in a Synergy 4 microplate reader (BioTek) using a 340/30 nm excitation filter and measuring the emission ratio using 485/20 nm and 528/20 nm emission filters. Fluorescence measurement was performed over a 400 µs window following a 100 µs delay post-excitation (Fig. 1).
(§4) All assays were carried out in triplicate with the data representing the mean with standard deviation. […] Auto-ubiquitination reactions were allowed to proceed for 1 h at 37 °C and then read through the TR-FRET assay described in the methods.
Description for Nedd4 C867A: as §3, §4
Description for WWP1: (§5) All time-resolved fluorescence resonance energy transfer (TR-FRET) auto-ubiquitination assays were performed in a final volume of 10 µL in PerkinElmer 384-well flat bottom white OptiPlate™ polystyrene microplates (PerkinElmer Cat. No. 6007290). […] Concentrations of Ub activating (E1) and conjugating (E2) enzymes and fluorophores were selected to provide sufficient TR-FRET signal intensity for compound screening without excessive reagent consumption (Supplementary Fig. 3). Reaction mixes containing all assay components except ATP-MgCl2 were preincubated with either library compounds dissolved in 1% DMSO or DMSO alone at RT for up to 2 h. To initiate the auto-ubiquitination reaction, 2 mM ATP-MgCl2 was added and incubated at 37 °C for 60–90 min. TR-FRET signal was measured in a Synergy 4 microplate reader (BioTek) using a 340/30 nm excitation filter and measuring the emission ratio using 485/20 nm and 528/20 nm emission filters. Fluorescence measurement was performed over a 400 µs window following a 100 µs delay post-excitation (Fig. 1). Similarly, TR-FRET assays were used to measure the auto-ubiquitination activity of two other Nedd4 family HECT E3 ligases (WWP1 and WWP2) using alternative optimized buffer and fluorophore concentrations to test Nedd4 inhibitor specificity (Supplementary Table 2).
For selectivity assays, we used C-terminal His-tagged WWP1 and WWP2 bound to Tb-labelled
anti-His-tag antibody and FITC-labelled ubiquitin.
Tb-SA 50 nM AntiHis-Tb 16.5 nM AntiHis-Tb 10 nM
NaCl 150 mM NaCl 0 mM NaCl 0 mM
TCEP 0.1 mM TCEP 0.1 mM TCEP 0.1 mM
DMSO 1 % DMSO 1 % DMSO 1 %
MgCl2 2 mM MgCl2 2 mM MgCl2 2 mM
ATP 2 mM ATP 2 mM ATP 2 mM
Description for WWP2: as §5
For selectivity assays, we used C-terminal His-tagged WWP1 and WWP2 bound to Tb-labelled […]

As for `COC(=O)c1ccc2[nH]cc(C(=O)CCl)c2c1` [Compound 11], the IC50 (commonly the concentration at which inhibition is half-maximal) against Nedd4 [1] was 96.8 µM and 100 µM.
Take `Cn1cc(C(=O)CCl)c2ccccc21` [Compound 6]: the IC50 against Nedd4 [1] is 174 µM and 170 µM.
Take `Cc1cc(C(=O)CCl)c(C)n1-c1ccccc1` [Compound 20]: the IC50 against Nedd4 [1] was 244 µM and 240 µM.
Turning to `OCc1c[nH]c2ccccc12` [Compound 5, Indole-3-carbinol, reference compound], the inhibition – broadly, how much of the control response was suppressed – on Nedd4 [2] (500 µM) was 33%. Moreover, in the experiment with Nedd4 [3] (previously reported), the IC50 is 284 µM.
Take `Cc1cc(C(=O)CCl)c(C)[nH]1` [Compound 23]: the inhibition against WWP1 is around 25%. At Nedd4 [1], the IC50 was < 60 µM and 56 µM.
Take `Cc1cc(C(=O)C(C)Cl)c(C)n1Cc1ccco1` (centres unmarked) [Compound 36]: the concentration for half-maximal inhibition (IC50) on Nedd4 [1] is 113 µM and 110 µM.
`O=C(CCl)c1c[nH]c2ccccc12` [Compound 25] had an inhibition against WWP1 of around 25%.
With `O=C(CCl)c1ccccn1` [Compound 81], at Nedd4 C867A, the “change of C867A mutant activity on incubation with compound” value was “No significant differences”. Moreover, the “effect on Nedd4 auto-ubiquitination by Western blot” value on Nedd4 [4] is recorded as “complete loss of auto-ubiquitination”. Besides, the “change of C627A + C867A mutant activity on incubation with compound” value at Nedd4 C627A + C867A is listed as “No significant differences”. Also, the inhibition on Nedd4 [2] (200 µM) is above 50%. Moreover, the activity at 200 µM at Nedd4 C627A was determined as 30%. The IC50 at Nedd4 [1] was 31 µM and < 60 µM. Further, at Nedd4 [5] (200 µM compound, 3 h at RT), the “cysteine adduction sites confirmed by MS/MS” value was “all three of the confirmed cysteine residues”. For the same compound, at Nedd4 [5] (setting [6]), the “Occurrence Among Observed Peptides, Cysteine Site C182” value is recorded as 25/67; the “Occurrence Among Observed Peptides, Cysteine Site C627” value is 8/12; the “Occurrence Among Observed Peptides, Cysteine Site C867” value was 21/50. Besides, the “Localization Probability of Compound 81 modification on cysteine (Cys627 peptide)” value at Nedd4 [5] (sheet "81 Mod Cys627", per peptide spectrum match, residues 639-657, C11 or C9 of the peptide) is 100% and 72%, 0%, 100% and 100%, 100%.
Regarding `O=C(CCl)c1c[nH]c2ccncc12` [Compound 13], the inhibition was 58% and 73% against WWP2; 47% and 72% against WWP1.
As for `Cn1ccc(C(=O)CCl)c1` [Compound 24], on Nedd4 [1], the 50% inhibitory concentration (IC50) was 116 µM and 115 µM.
On the same count and under the same terms, then `COCCn1c(C)cc(C(=O)CCl)c1C` [Compound 21], with 143 µM and 140 µM.
In the case of `OCc1cn(Cc2ccccc2)c2ccccc12` [Compound 1-benzyl-I3C, 1-benzyl-I3C], the IC50 in the experiment with Nedd4 [3] (measured through an ELISA-based assay of Nedd4 activity) was 12.3 µM.
In the case of `Cc1cc(C(=O)CCl)c(C)n1CCC(C)C` [Compound 29], on Nedd4 [1], the IC50 is 88 µM and 90 µM.
